These results are taken from patent publication US20090215748A1, “FXR agonists for treating vitamin D associated diseases” (Wyeth, priority 2007, published 2009).

Common to all, as to type: in vivo
The test system of test [1] is KKAy mice. Briefly: Hepatic lipid metabolism and deposition in the KKAy model of diabetic nephropathy. From the text:
The KKAy mice are diabetic mice characterized by hyperglycemia and insulin resistance and are renally impaired with nodular glomerulosclerosis, mesangial proliferation, and abuminuria that increases with age or with a high cholesterol diet. Abnormal lipid metabolism and renal lipid accumulation may contribute to diabetic nephropathy. Administration of FXR agonist, Compound A (isopropyl 3-(3,4-difluorobenzoyl)-1,1-dimethyl-1,2,3,6-tetrahydroazepino[4,5-b]indole-5-carboxylate) improves hepatic lipid metabolism and deposition in the KKAy model of diabetic nephropathy.

Test [2] has as its system CYP27B1. Briefly: Gene profiling of kidneys isolated from KKAy mice treated with Compound A. Here is the method: To examine the role of FXR in the kidney, gene-profiling experiments were performed using kidneys isolated from KKAy mice treated with Compound A. Genes involved in vitamin D synthesis, calcium mobilization, amino acid metabolism, inflammation, oxidative phosphorylation, and nitric oxide production were regulated by Compound A treatment. […] The CYP27B1 gene, expressed in the proximal tubes of the kidney, encodes 25-hydroxyvitamin D3 1α-hydroxylase, which generates the active form of vitamin D, 1α,25-dihydroxyvitamin D3, from a proform of vitamin D, 25 hydroxyvitamin D3.

The subject of test [3] is CYP27B1. Kind of test: CYP27B1 expression in wild (WT) mice, 7 day treatment (FIG. 1).
In test [4] the test system is CYP27B1. Kind of test: CYP27B1 expression in FXR deficient (FXR KO) mice, 7 day treatment (FIG. 1).
For test [5], the system named is KKAy mice. Kind of test: Serum creatinine level in KKAy mice, 7 days oral dosing (FIG. 3). Particulars: orally once a day for seven days, not statistically significant.
Test [6] relates to CYP27B1. Briefly: CYP27B1 gene expression in chow fed KKAy mice, 7 day treatment (FIG. 4).
The next test relates to MMP-14. Kind of test: MMP-14 gene expression in chow fed KKAy mice, 7 day treatment (FIG. 5).
The subject of another test is renin. Briefly: Renal renin gene expression in KKAy mice, 4 weeks treatment (FIG. 6). The following applies: once a day for 4 weeks. The source says: Vitamin D and its receptor vitamin D receptor (VDR) may regulate the cardiovascular system. VDR deficient and CYP27B1 deficient mice have increased blood pressure and left ventricle hypertrophy.
In another test the test system is OVX rats. Briefly: OVX-induced bone loss in OVX rats. The following applies: 3 and 30 mg/kg, 6-10 weeks of treatment. The source says: OVX rats are rats subjected to bilateral ovariectomy, which results in development of osteopenia. Two studies have been conducted to evaluate the effect of one of the FXR agonists disclosed herein, isopropyl 3-(3,4-difluorobenzoyl)-1,1-dimethyl-1,2,3,6-tetrahydroazepino[4,5-b]-indole-5-carboxylate, in OVX rats. […] The exposure level of the compound in bone tissue of the rats was not studied and the EC50 of the compound in bone cells was not studied. Accordingly, the reason for the absence of an observable effect has not been determined.

In the case of `CC(C)OC(=O)C1=CN(C(=O)c2ccc(F)c(F)c2)CC(C)(C)c2c1[nH]c1ccccc21` [Compound A, isopropyl 3-(3,4-difluorobenzoyl)-1,1-dimethyl-1,2,3,6-tetrahydroazepino[4,5-b]indole-5-carboxylate], in the test on KKAy mice [1], the “hepatic lipid metabolism and deposition” value is “improves”. For the same compound, the CYP27B1 gene expression result with CYP27B1 [2] and with CYP27B1 [6] was “upregulated” each time. Also, the “expression of CYP27B1, induction” value in the test on CYP27B1 [3] was found to be 15 fold. Moreover, the “effect on the expression of CYP27B1” value in the test with CYP27B1 [4] is recorded as “No effect”. Besides, the “reduction in serum creatinine levels” value in the test with KKAy mice [5] is listed as 20%. The MMP-14 gene expression result with MMP-14 was “decreased”. For the same compound, in the test with renin, the “renal renin gene expression” value is “significant reduction”. In addition, in the test with OVX rats, the “effect on preventing or restoring OVX-induced bone loss” value is reported as “did not show any effect”.
